Experimental data published in article PMC6669322, “Small Molecule Binding to Alzheimer Risk Factor CD33 Promotes Aβ Phagocytosis” (iScience, 2019).

Tests used:
CD33 H45A = target: T1, CD33 H45A (Homo sapiens, UniProt P20138, H45A); experiment: SNAP-tag homogeneous time-resolved fluorescence binding assay, CD33 H45A; conditions: H45 mutated to alanine, in words
T1 construct: human CD33 ORF (NM_001772.3), lacking its signal peptide; expressed in transfected cells; host or cells: HEK293T, transient, pT8-SNAP vector
Experimental: We then used our structural data to design mutations of key residues interacting with P22 to assess which interactions were the most important for binding affinity. The residues were mutated into alanine, and the effect of these mutations on P22 binding affinity was assessed using a SNAP-tag homogeneous time-resolved fluorescence binding assay (see Transparent Methods and Figures 3E–3G). The R119A mutation, which destroys the salt bridge between P22 and CD33, was one of the most detrimental to binding (>30-fold loss) (Figure 2C and Table S4). […]
HEK293T cells were cultured in DMEM (ThermoFisher Scientific # 11965092) containing 10% FBS (Hyclone # SH30070.03) and 1% Penicillin-Streptomycin (ThermoFisher Scientific # 15140122) and transfected using Fugene HD (Promega # E2312) in 10 cm plates. […] The cells were counted, centrifuged and resuspended in PBS at a concentration of 1,000 cells/μL and 10 μL were plated into each well. […] Non-specific binding was assessed by competition with 100 μM of the non-labeled P22, as well as in control (Snap-tagged dopamine D2R receptor)-transfected cells.
Fluorescence was read with a PHERAstar plate reader using an excitation of 337 nm and emissions of 620 and 665 nm. […]

human CD33 = tested on: human CD33; design: method as in Rillahan et al., 2014; conditions: in words; ref Rillahan et al., 2014; cited from earlier work

T1 sequence (P20138 18-364 H45A): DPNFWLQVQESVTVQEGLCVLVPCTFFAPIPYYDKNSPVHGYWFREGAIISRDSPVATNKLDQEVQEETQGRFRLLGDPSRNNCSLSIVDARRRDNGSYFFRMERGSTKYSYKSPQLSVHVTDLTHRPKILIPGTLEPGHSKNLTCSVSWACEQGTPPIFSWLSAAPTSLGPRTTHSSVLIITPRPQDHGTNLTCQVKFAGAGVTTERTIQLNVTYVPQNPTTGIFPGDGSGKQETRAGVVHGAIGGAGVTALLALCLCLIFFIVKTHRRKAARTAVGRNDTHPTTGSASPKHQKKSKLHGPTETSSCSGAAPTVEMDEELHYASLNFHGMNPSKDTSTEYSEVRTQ

impact of mutation on P22 binding affinity (CD33 H45A): little to no significant impact
SMILES: Cc1cc(C(=O)NC[C@@H](O)[C@@H](O)[C@@H]2O[C@@](OC[C@H]3O[C@@H](O[C@H]4[C@H](O)[C@@H](O)[C@H](OCCN)O[C@@H]4CO)[C@H](O)[C@@H](O)[C@H]3O)(C(=O)O)C[C@H](O)[C@H]2NC(=O)Cn2cc(C3CCCCC3)nn2)cc(C)c1O [P22, β-D-Glucopyranoside, 2-aminoethyl O-[N-[2-(4-cyclohexyl-1H-1,2,3-triazol-1-yl)acetyl]-9-deoxy-9-[(4-hydroxy-3,5-dimethylbenzoyl)amino]-α-neuraminosyl] (2→6)-O-β-D-galactopyranosyl-(1→4)-]
specificity for human CD33 over other human Siglecs (human CD33): high specificity
